Entries after “also recorded” stand apart in the source; their conditions may differ.
Assays:
[1] = tested on: cerebellar granule neurons (CGNs); assay: Cell viability via Calcein AM fluorogenic conversion assay; conditions: for effect on staurosporine-induced decrease in viability: 1 nM bafilomycin A1 + 0.1 μM staurosporine; for chloroquine-induced decrease in viability / cell death: 1 nM macrolide + 20 μM chloroquine
Method: (§1) Cerebellar granule neurons (CGNs) were isolated from postnatal day 7 mice as previously described^40. CGNs were plated in poly-L-lysine coated plates at a density of 1250 cells per mm^2. 48 well plates were used for viability and caspase activity assays; 100 mm dishes were used for western blot analysis; and 4 well […] chamber slides (Agene) were used for analysis of vacuolar acidification.
(§2) CGNs were treated in vitro on day 4. […] Separate cultures of CGNs were also treated for 24 h with staurosporine (0.1 μM), in the presence or absence of BafA1 (1-10 nM final).
(§3) Cell viability (via Calcein AM fluorogenic conversion assay; Molecular Probes, Eugene, Oreg.) and caspase-3-like activity (via fluorogenic DEVD cleavage assay) were performed as previously described 40 and were expressed relative to untreated controls.

caspase-3-like activity = assay: Caspase-3-like activity via fluorogenic DEVD cleavage assay in CGNs; format: cell-based, mice
Method: as §1, §2, §3

[2] = tested on: cerebellar granule neurons (CGNs); assay: Viable CGNs by viability marker calcein AM during LTR labeling; format: cell-based, mice; conditions: 24 h
Method: as §1, §2
(§4) Conditioned media was removed from CGNs grown in 4 well, permanox chamber slides. LTR (0.05 μM; Molecular Probes, Eugene, Oreg.) and Calcein AM (2.5 μg/ml; Molecular Probes, Eugene, Oreg.) were prepared in Locke's Buffer and added to each well for 30 min, 37° C. After this incubation the cells were washed with Locke's Buffer and cover-slipped. Images were captured using a Carl Zeiss Axioskop microscope equipped with epifluorescence.

p18 Bax = assay: Western blot of p18 Bax in CGNs; format: cell-based, mice
Method: as §1
CGNs were treated in vitro on day 4. […]
Cells were detached from their substrate by incubation for 5 min at 37° C. with Accutase (Innovative Cell Technologies, San Diego, Calif.). Conditioned media and cells were centrifuged (700×g, 5 min, 4° C.). The supernatant was aspirated and re-suspended with 1 ml ice-cold PBS, then centrifuged again (700×g, 5 min, 4° C.). The resultant pellet was re-suspended in lysis buffer containing 25 mM HEPES, 5 mM EDTA, 5 mM MgCl2, 1% SDS, 1% Triton X-100, 1 mM PMSF, 1% protease inhibitor cocktail and 1% phosphatase inhibitor cocktail (Sigma). Cell lysates were sonicated to shear DNA and then centrifuged (10,000 rpm, 10 min, 4° C.), and the resultant supernatant (cleared whole cell lysates) was transferred to a fresh tube. Protein levels were determined subsequently via BCA assay (Pierce). […] Signal was detected using Supersignal chemiluminescence (Pierce). […] Blots were scanned for densitometric analysis using Biorad Quantity One® software.

cleaved caspase-3 = assay: Western blot of cleaved caspase-3 in CGN lysates; format: cell-based, mice
Method: as §1, §2
Cells were detached from their substrate by incubation for 5 min at 37° C. with Accutase (Innovative Cell Technologies, San Diego, Calif.). Conditioned media and cells were centrifuged (700×g, 5 min, 4° C.). The supernatant was aspirated and re-suspended with 1 ml ice-cold PBS, then centrifuged again (700×g, 5 min, 4° C.). The resultant pellet was re-suspended in lysis buffer containing 25 mM HEPES, 5 mM EDTA, 5 mM MgCl2, 1% SDS, 1% Triton X-100, 1 mM PMSF, 1% protease inhibitor cocktail and 1% phosphatase inhibitor cocktail (Sigma). Cell lysates were sonicated to shear DNA and then centrifuged (10,000 rpm, 10 min, 4° C.), and the resultant supernatant (cleared whole cell lysates) was transferred to a fresh tube. Protein levels were determined subsequently via BCA assay (Pierce). Equal amounts of protein were resolved via SDS-PAGE and transferred to PVDF. After transfer blots were cut in half at approximately 37 kDa. […] Blots were blocked for 1 h, RT (5% milk), followed by overnight incubation with primary antibody. Blots were washed with 1×TBS containing 0.1% Tween 20, then incubated with secondary antibody (goat anti-rabbit IgG, Biorad) for 1 h, RT and subsequently washed. Signal was detected using Supersignal chemiluminescence (Pierce). […] Blots were scanned for densitometric analysis using Biorad Quantity One® software.

vacuolar ATPase = conditions: cited from earlier work
acidic vesicles = assay: Labeling of acidic vesicles in CGNs with Lysotracker Red (LTR); format: cell-based, mice
Method: as §1, §2, §4

LC3 = assay: Western blot of LC3 processing (LC3-I, LC3-II) in CGN lysates; format: cell-based, mice
Method: as §1, §2
Cells were detached from their substrate by incubation for 5 min at 37° C. with Accutase (Innovative Cell Technologies, San Diego, Calif.). Conditioned media and cells were centrifuged (700×g, 5 min, 4° C.). The supernatant was aspirated and re-suspended with 1 ml ice-cold PBS, then centrifuged again (700×g, 5 min, 4° C.). The resultant pellet was re-suspended in lysis buffer containing 25 mM HEPES, 5 mM EDTA, 5 mM MgCl2, 1% SDS, 1% Triton X-100, 1 mM PMSF, 1% protease inhibitor cocktail and 1% phosphatase inhibitor cocktail (Sigma). Cell lysates were sonicated to shear DNA and then centrifuged (10,000 rpm, 10 min, 4° C.), and the resultant supernatant (cleared whole cell lysates) was transferred to a fresh tube. Protein levels were determined subsequently via BCA assay (Pierce). Equal amounts of protein were resolved via SDS-PAGE and transferred to PVDF. After transfer blots were cut in half at approximately 37 kDa. […] Blots were blocked for 1 h, RT (5% milk), followed by overnight incubation with primary antibody. Blots were washed with 1×TBS containing 0.1% Tween 20, then incubated with secondary antibody (goat anti-rabbit IgG, Biorad) for 1 h, RT and subsequently washed. Signal was detected using Supersignal chemiluminescence (Pierce). After detection of cleaved caspase-3, the bottom blot was stripped using Restore Western Blot stripping buffer (Pierce) then probed with rabbit anti-LC3 (provided by Uchiyama laboratory), using the same western blot protocol as described above. Blots were scanned for densitometric analysis using Biorad Quantity One® software.

in vitro = conditions: mouse
Method: as §1, §2, §3

Bid = assay: Cleavage of Bid in CGNs; format: cell-based, mice; conditions: chloroquine; data not shown
[3] = + chloroquine 20 μM for 24 hours, wild-type CGNs
[4] = bafilomycin A1 by itself, 24 hours
[5] = 10 nM bafilomycin A1, 24 hours, Bax deficiency
[6] = all concentrations of bafilomycin A1 tested + 20 μM chloroquine, 24 hours
[7] = co-addition with 20 μM chloroquine, 24 hours
[8] = 10 nM bafilomycin A1 by itself, 24 hours
[9] = bafilomycin A1 0.3-10 nM + 20 μM chloroquine, 24 hours

## COC(=O)CC(NC(=O)OC(C)(C)C)C(=O)CF (stereo not shown) [BOC-aspartyl(Ome)-fluoromethyl ketone, reference compound]
[1]; [3]
  effect on chloroquine-induced death: did not attenuate
caspase-3-like activity; [3]
  effect on chloroquine-induced increase in caspase-3-like activity: significantly attenuate

## CO/C1=C\C(C)=C\[C@@H](C)[C@@H](O)[C@@H](C)C/C(C)=C/C=C/[C@H](OC)[C@@H]([C@@H](C)[C@@H](O)[C@H](C)[C@@]2(O)C[C@@H](O)[C@H](C)[C@@H](C(C)C)O2)OC1=O [bafilomycin A1]
[2]; 1 nM bafilomycin A1 + 20 μM chloroquine
  numbers of viable neurons: increased numbers of viable neurons
[2]; 1 nM bafilomycin A1 by itself
  viability by calcein AM: nor did it reduce viability
[2]; 10 nM bafilomycin A1, presence or absence of chloroquine
  numbers of viable CGNs: decreased numbers of viable CGNs
p18 Bax; 1 nM bafilomycin A1 with chloroquine 20 μM, 24 hours
  increase in p18 Bax levels: inhibits the increase in p18 Bax levels; also recorded: dramatically attenuated
Cleaved caspase-3; [4]
  concentration at which increase in cleaved caspase-3 was apparent: 10 nM
Cleaved caspase-3; co-treatment with 20 μM chloroquine, 24 hours
  concentrations that attenuated chloroquine-induced increase in cleaved caspase-3: ≤ 1 nM
[1]; 24 hours
  effect on staurosporine-induced decrease in viability: not altered
[1]; 24 hours, listed as Bafilomycin A1
  effect on staurosporine-induced decrease in viability: did not prevent the decrease in viability
[1]; 1 nM bafilomycin A1 + 20 μM chloroquine, 24 hours
  viability: 88%
[1]; 10 nM bafilomycin A1 + 0.1 μM staurosporine, 24 hours
  viability: 20%
[1]; [5]
  reduction in viability in Bax-deficient CGNs: prevented
[1]; 10-100 nM bafilomycin A1 + 20 μM chloroquine, 24 hours
  chloroquine-induced decrease in viability: still attenuated; also recorded: inhibited chloroquine-induced death
[1]; [6]
  chloroquine-induced decrease in viability: significantly attenuated
[1]; [4]
  concentrations that did not decrease viability: ≤ 1 nM
  concentrations that significantly decreased viability: ≥ 10 nM
[1]; [7]
  concentration of maximal attenuation of chloroquine-induced decrease in viability: 1 nM
Vacuolar ATPase
  concentrations reported to inhibit vacuolar ATPase: greater than 1 nM
Acidic vesicles; 1 nM bafilomycin A1 + 20 μM chloroquine, 24 h, versus either alone
  LTR staining: increase in LTR staining intensity
Acidic vesicles; 1 nM bafilomycin A1 by itself, 24 h
  LTR staining / vacuolar acidification: did not alter the staining pattern of LTR; also recorded: did not alter vacuolar acidification
Acidic vesicles; 10 nM bafilomycin A1, presence or absence of chloroquine, 24 h
  LTR staining / vacuolar acidification: prevented any detection of vacuolar acidification by LTR; also recorded: completely prevents LTR staining
caspase-3-like activity; 1 nM bafilomycin A1 + 20 μM chloroquine, 24 hours, maximal
  reduction of chloroquine-induced caspase-3-like activity: 3 fold
caspase-3-like activity; [5]
  increase in caspase-3-like activity in Bax-deficient CGNs: prevented
caspase-3-like activity; [4]
  concentrations that did not induce caspase-3-like activity: ≤ 1 nM
  concentrations that increased caspase-3-like activity: ≥ 10 nM
caspase-3-like activity; [7]
  concentrations that reduced chloroquine-induced increase in caspase-3-like activity: 0.3 to 1 nM
LC3; [8]
  levels of LC3-II: dramatic increase
  ratio of LC3-II/LC3-I: increase
LC3; [6]
  ratio of LC3-II to LC3-I: reduction
LC3; [9]
  chloroquine-induced levels of LC3-II: did not attenuate
  levels of LC3-I: appeared to increase
LC3; bafilomycin A1 by itself, any concentration, 24 hours
  levels of LC3-I: did not change

## CO/C1=C\C(C)=C\[C@@H](C)[C@@H](O)[C@@H](C)C/C(C)=C/C=C/[C@H](OC)[C@@H]([C@@H](C)[C@@H](O)[C@H](C)[C@@]2(O)C[C@@H](OC(=O)/C=C/C(=O)NC3=C(O)CCC3=O)[C@H](C)[C@@H](C(C)C)O2)OC1=O [bafilomycin B1]
[1]; data not shown
  chloroquine-induced decrease in viability / cell death: inhibited chloroquine induced cell death
[1]; data not shown, listed as Bafilomycin B1
  chloroquine-induced decrease in viability / cell death: attenuated

## CCN(CC)CCCC(C)Nc1ccnc2cc(Cl)ccc12 (stereo not shown) [chloroquine, reference compound]
p18 Bax; chloroquine 20 μM for 24 hours
  amount of p18 Bax: increased
Cleaved caspase-3; 20 μM chloroquine, 4-48 hours
  cleaved caspase-3 temporal pattern: most robust at 16 hours
In vitro
  viability at 8 h, 20 μM: 93%
  viability at 24 h, 20 μM: 24%
  viability at 24 h, 40 μM: 8%
Bid
  cleavage of Bid: not increased
Acidic vesicles; 20 μM chloroquine, 24 hours, surviving CGNs versus control
  LTR staining: greater intensity of LTR staining
LC3; 20 μM chloroquine, 24-48 hours, versus control
  levels of LC3-I: appeared lower
LC3; 20 μM chloroquine, 24 hours, Bax deficiency
  chloroquine-induced increase in LC3-II in Bax-deficient CGNs: did not prevent
LC3; 20 μM chloroquine, remained high through 48 hours
  time to elevation of LC3-II: ≤ 4 h

## C/C=C/[C@H]1O[C@@](O)([C@@H](C)[C@H](O)[C@H](C)[C@H]2OC(=O)/C(OC)=C/C(C)=C/[C@@H](C)[C@@H](O)[C@@H](CC)[C@@H](O)[C@H](C)C/C(C)=C/C=C/[C@@H]2OC)C[C@@H](O)[C@@H]1C [concanamycin]
[1]; data not shown
  chloroquine-induced decrease in viability / cell death: inhibited chloroquine induced cell death

## C[C@@H]1C[C@@H]([C@H](O)CC2CC(=O)NC(=O)C2)C(=O)[C@@H](C)C1 [cycloheximide, reference compound]
[1]; cycloheximide 0.1-1 mg/ml with chloroquine, data not shown
  effect on magnitude of cell death induced by chloroquine: did not alter

## CN[C@@H]1C[C@H]2O[C@@](C)([C@@H]1OC)n1c3ccccc3c3c4c(c5c6ccccc6n2c5c31)C(=O)NC4 [staurosporine, reference compound]
In vitro
  viability at 24 h, 0.1 μM: 44%
caspase-3-like activity; 0.1 μM staurosporine, data not shown
  caspase-3-like activity: significantly increases

— patent US20080221150A1, “Prevention of Neurodegeneration by Macrolide Antibiotics” (priority 2005, published 2008)
